Experimental data taken from patent publication US8575193B2, “N-substituted tetrahydroisoquinoline/isoindoline hydroxamic acid compounds” (4SC AG, priority 2008, dated 2013).

Experiments:
[1] = biological target: T1, rHDAC1 (Homo sapiens, UniProt Q13547); test: rHDAC1 enzymatic assay (recombinant FLAG-HDAC1); format: biochemical; conditions: FLAG-HDAC1 from HEK293; 6 μM Ac-NH-GGK(Ac)-AMC, 3 h at 30° C.; read-out: rHDAC1 [pIC50] (converted)
T1 construct: FLAG; made in house
Excerpt: (§1) Human HDAC1 and HDAC6 fused with the FLAG epitope are stably expressed in HEK293 cells while human HDAC3 and HDAC8 fused with the FLAG epitope are overexpressed in baculo-virus infected insect (Sf21) cells. To ensure stability of FLAG-HDAC3 the SMRT protein is co-expressed in the corresponding insect cells. […] FLAG-HDAC3 and FLAG-HDAC8 are also purified by M2-agarose affinity chromatography after mass cultivation of the insect cells and cell lysis.
(§2) The HDAC enzyme activity assay is done as described by Wegener et al. (Chem. & Biol. 10, 61-68, 2003). Briefly 40 μl of a 1:100 dilution (=0.4 μl) nuclear HeLa extract (mixture of class I and II HDACs), 29 μl enzyme buffer (15 mM Tris HCl pH 8.1, 0.25 mM EDTA, 250 mM NaCl, 10% v:v glycerol) and 1 μl test compound are added to a well of a 96 well microtiter plate and reaction started by addition of 3 μl substrate (Ac-NH-GGK(Ac)-AMC; final concentration 25 μM and final volume […]). […] After incubation at room temperature for further 40 min, fluorescence is measured using a Wallac Victor 1420 multilabel counter (Ex 355 nm, Em 460 nm) for quantification of AMC (7-amino-4-methylcoumarin) generated by trypsine cleavage of the deacetylated peptide. […] The corresponding pIC50 values of the compounds for HDAC inhibitory activity are determined from the concentration-effect curves by means of non-linear regression (Graphpad Prism software).
(§3) The HDAC1, HDAC3 and HDAC6 enzymatic assays are done with slight modifications with recombinant FLAG-HDAC1 and FLAG-HDAC6 proteins isolated from HEK293 cell lysates or recombinant FLAG-HDAC3 isolated from insect cells, respectively. The HDAC8 enzymatic assay using recombinant FLAG-HDAC8 isolated from insect cells is done with a different substrate. About 4.5 ng/well FLAG-HDAC1 and 3.1 ng/well FLAG-HDAC6 (dependent on batches and specific activity) are incubated with 6 μM or 10 μM Ac-NH-GGK(Ac)-AMC substrate, respectively, for 3 h at 30° C. About 1.7 ng/well FLAG-HDAC3 is incubated with 6 μM Ac-NH-GGK(Ac)-AMC substrate for 2 h at 30° C., while approximately 130 ng/well FLAG-HDAC8 is incubated with 50 μM Ac-RHK(Ac)K(Ac)-AMC substrate for 3 h at 30° C. Termination of the reaction and all further steps are done as described for HeLa cell nuclear extracts as a source for HDAC enzymatic activity. The corresponding pIC50 values of the compounds for HDAC1, HDAC3, HDAC6 and HDAC8 inhibitory activity are determined from the concentration-effect curves by means of non-linear regression.

[2] = biological target: T2, rHDAC8 (Homo sapiens, UniProt Q9BY41); test: rHDAC8 enzymatic assay (recombinant FLAG-HDAC8); format: biochemical; conditions: FLAG-HDAC8 from insect cells; 50 μM Ac-RHK(Ac)K(Ac)-AMC, 3 h at 30° C.; read-out: rHDAC8 [pIC50] (converted)
T2 construct: FLAG; made in house; host or cells: baculovirus-infected Sf21 insect cells
T2 sequence (Q9BY41 1-377): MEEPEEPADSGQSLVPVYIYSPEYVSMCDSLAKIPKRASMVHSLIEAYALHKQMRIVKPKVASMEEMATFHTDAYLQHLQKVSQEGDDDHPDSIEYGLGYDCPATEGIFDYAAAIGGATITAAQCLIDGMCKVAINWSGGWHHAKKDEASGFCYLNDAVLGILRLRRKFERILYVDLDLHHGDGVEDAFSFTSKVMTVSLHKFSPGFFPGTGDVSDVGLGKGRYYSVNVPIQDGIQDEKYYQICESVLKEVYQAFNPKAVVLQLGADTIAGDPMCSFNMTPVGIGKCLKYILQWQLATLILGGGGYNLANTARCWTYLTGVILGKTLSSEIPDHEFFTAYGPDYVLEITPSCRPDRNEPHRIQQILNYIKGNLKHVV
Excerpt: as §1, §2, §3

[3] = Cellular cytotoxicity assay (Alamar Blue/Resazurin), A549; format: cell-based; conditions: human, A549 cells; A549, 72 hours incubation, Resazurin; read-out: A549 Cytotoxicity [pIC50] (converted)
Method: The anti-proliferative activity of the compounds as described herein, is evaluated with various solid and hematological cancer cell lines using the Alamar Blue (Resazurin) cell viability assay (O'Brien et al, Eur J Biochem 267, 5421-5426, 2000). Resazurin is reduced to the fluorescent resorufin by cellular dehydrogenase activity, correlating with viable, proliferating cells. Test compounds are dissolved as 20 mM solutions in dimethylsulfoxide (DMSO) and subsequently diluted in semi-logarithmic steps. The cancer cell lines are seeded into 96 well flat bottom plates at respective cell densities in a volume of 200 μl per well to allow continuous proliferation during the experiment. 24 hours after seeding 1 μl each of the compound dilutions is added into each well of the 96 well plate. Wells containing untreated control cells are filled with 200 μl DMEM medium containing 0.5% v:v DMSO. The cells are then incubated with the substances for 72 hours at 37° C. in a humidified atmosphere containing 5% carbon dioxide. To determine the viability of the cells, 20 μl of a Resazurin solution (Sigma; 90 mg/l) are added. After 4 hours incubation at 37° C. the fluorescence is measured at an extinction of 544 nm and an emission of 590 nm. For the calculation of the cell viability the emission value from untreated cells is set as 100% viability and the emission rates of treated cells are set in relation to the values of untreated cells. Viabilities are expressed as % values. The corresponding pIC50 values of the compounds for cytotoxic activity are determined from the concentration-effect curves by means of non-linear regression.

T1 sequence (Q13547 whole entry): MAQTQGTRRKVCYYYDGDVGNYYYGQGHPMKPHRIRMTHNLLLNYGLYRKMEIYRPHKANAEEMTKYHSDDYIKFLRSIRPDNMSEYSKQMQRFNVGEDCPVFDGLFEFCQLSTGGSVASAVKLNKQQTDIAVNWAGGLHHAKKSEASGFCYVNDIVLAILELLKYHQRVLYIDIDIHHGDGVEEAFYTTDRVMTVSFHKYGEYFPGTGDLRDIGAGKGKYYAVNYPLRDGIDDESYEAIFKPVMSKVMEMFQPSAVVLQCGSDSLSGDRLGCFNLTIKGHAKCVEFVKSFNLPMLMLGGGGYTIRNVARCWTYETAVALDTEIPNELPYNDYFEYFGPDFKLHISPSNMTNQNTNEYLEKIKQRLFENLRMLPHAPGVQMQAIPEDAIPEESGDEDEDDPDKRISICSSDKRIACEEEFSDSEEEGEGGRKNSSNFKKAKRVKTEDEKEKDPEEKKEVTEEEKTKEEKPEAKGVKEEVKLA

| IC50 [1] | IC50 [2] | melting point | SMILES | IC50 at 72 h [3] |
| --- | --- | --- | --- | --- |
| 0.1 to 10 µM | 1 to 10 µM | 90 °C | O=C(NO)c1ccc2c(c1)CCN(C(=O)C1CC1)C2 [Example 16, N-Hydroxy-2-(cyclopropylcarbonyl)-1,2,3,4-tetrahydroisoquinoline-6-carboxamide] | > 100 µM |
| 0.1 to 10 µM | 1 to 10 µM | 156 °C | COc1ccc2[nH]c(C(=O)N3CCc4cc(C(=O)NO)ccc4C3)cc2c1 [Example 15, N-Hydroxy-2-[(5-methoxy-1H-indol-2-yl)carbonyl]-1,2,3,4-tetrahydroisoquinoline-6-carboxamide] | 1 to 100 µM |
